Values joined by “and” are separate entries in the source; they are usually repeats but may differ in a detail not shown here. Equal entries are not always repeated.
Tests used:
bovine α1a-adrenoceptor = target: T1, bovine α1a-adrenoceptor (Bos taurus, UniProt P18130); assay: [3H]Prazosin binding, bovine α1a-adrenoceptor in COS-7 cell membranes; conditions: bovine α1a, COS-7 membranes; read-out: Affinity (Ki) α1a, animal cloned receptors
T1 construct: expressed in transfected cells; host or cells: COS-7 cells (transient), membranes
T1 sequence (P18130 1-466): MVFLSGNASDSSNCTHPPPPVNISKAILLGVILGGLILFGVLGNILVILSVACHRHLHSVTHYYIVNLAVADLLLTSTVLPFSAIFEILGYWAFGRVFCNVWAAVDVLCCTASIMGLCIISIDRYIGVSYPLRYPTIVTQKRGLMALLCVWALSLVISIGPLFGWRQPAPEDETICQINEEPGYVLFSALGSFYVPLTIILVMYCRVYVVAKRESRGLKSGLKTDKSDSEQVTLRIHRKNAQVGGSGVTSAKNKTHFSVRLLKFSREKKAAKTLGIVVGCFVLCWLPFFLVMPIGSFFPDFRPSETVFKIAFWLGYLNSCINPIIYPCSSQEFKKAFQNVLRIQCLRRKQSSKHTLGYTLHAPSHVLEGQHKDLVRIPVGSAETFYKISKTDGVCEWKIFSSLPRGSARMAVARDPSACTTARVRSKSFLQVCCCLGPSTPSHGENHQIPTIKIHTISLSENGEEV
Procedure: (§1) The incubation was stopped by addition of ice-cold Tris buffer and rapid filtration through 0.2% polyethyleneimine pretreated Whatman GF/B or Schleicher & Schuell GF52 filters.
(§2) Data are expressed as mean Ki. All patents and other references cited herein are incorporated by reference in their entirety.

anaesthetised rats = assay: Intracavernous and blood pressure recording in rats; format: in vivo, rat
Procedure: Rats were anaesthetised by an intraperitoneal injection of urethane (1.5 g/kg in sterile saline) and placed on an homeothermic blanket. Their temperature was maintained at 37° C. Rats were tracheotomized to facilitate spontaneous breathing and to prevent aspiration of saliva. A catheter filled with heparinized saline (25 IU/ml) was placed into the carotid to record mean blood pressure (BP, mmHg). The penis was desheathed and the corpora cavernosa were exposed. A 25-gauge stainless-steel needle was inserted into one corpus cavernosum to record intracavernous pressure (ICP in mmHg). […] Pressure catheters were connected to pressure transducers (Model 750, Elcomatic Ltd, Glasgow, UK).
Following a resting period of 10 minutes, the compound solvent was delivered intracavernously (50 μl/injection). Then, increasing doses of one compound were injected every ten minutes by the same route. Five injections (one solvent plus four cumulative doses) were performed in each rat, and five rats were used for the study of one compound. For each injection and for each compound, mean BP averaged over the ten minutes following the injection was measured. The maximal ICP value reached during the ten-minute period following an injection was also recorded. In these experiments, all the compounds tested were dissolved and diluted in propylene glycol-Sorensen solvent.

hamster α1b-adrenoceptor = target: T2, hamster α1b-adrenoceptor (Mesocricetus auratus, UniProt P18841); assay: [3H]Prazosin binding, hamster α1b-adrenoceptor in COS-7 cell membranes; conditions: COS-7 membranes, read-out: Affinity (Ki) α1b, animal cloned receptors
T2 construct: expressed in transfected cells; host or cells: COS-7 cells (transient), membranes
T2 sequence (P18841 1-515): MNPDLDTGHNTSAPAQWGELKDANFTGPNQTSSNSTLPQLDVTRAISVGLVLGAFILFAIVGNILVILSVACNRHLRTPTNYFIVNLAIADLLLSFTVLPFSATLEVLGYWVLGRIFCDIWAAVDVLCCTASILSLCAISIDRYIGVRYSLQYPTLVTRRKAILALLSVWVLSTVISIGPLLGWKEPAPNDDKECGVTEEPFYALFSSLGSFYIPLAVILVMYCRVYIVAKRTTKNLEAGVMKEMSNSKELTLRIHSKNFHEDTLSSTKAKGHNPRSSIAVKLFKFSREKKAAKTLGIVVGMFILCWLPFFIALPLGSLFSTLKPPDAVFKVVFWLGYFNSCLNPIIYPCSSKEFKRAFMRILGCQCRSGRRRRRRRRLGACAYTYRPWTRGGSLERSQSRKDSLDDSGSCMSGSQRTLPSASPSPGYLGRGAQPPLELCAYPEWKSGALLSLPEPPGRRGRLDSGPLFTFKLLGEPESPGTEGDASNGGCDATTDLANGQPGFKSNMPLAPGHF
Procedure: as §1, §2

rat α1d-adrenoceptor = target: T3, rat α1d-adrenoceptor (Rattus norvegicus, UniProt P23944); assay: [3H]Prazosin binding, rat α1d-adrenoceptor in COS-7 cell membranes; conditions: COS-7 membranes, read-out: Affinity (Ki) α1d, animal cloned receptors
T3 construct: expressed in transfected cells; host or cells: COS-7 cells (transient), membranes
T3 sequence (P23944 1-561): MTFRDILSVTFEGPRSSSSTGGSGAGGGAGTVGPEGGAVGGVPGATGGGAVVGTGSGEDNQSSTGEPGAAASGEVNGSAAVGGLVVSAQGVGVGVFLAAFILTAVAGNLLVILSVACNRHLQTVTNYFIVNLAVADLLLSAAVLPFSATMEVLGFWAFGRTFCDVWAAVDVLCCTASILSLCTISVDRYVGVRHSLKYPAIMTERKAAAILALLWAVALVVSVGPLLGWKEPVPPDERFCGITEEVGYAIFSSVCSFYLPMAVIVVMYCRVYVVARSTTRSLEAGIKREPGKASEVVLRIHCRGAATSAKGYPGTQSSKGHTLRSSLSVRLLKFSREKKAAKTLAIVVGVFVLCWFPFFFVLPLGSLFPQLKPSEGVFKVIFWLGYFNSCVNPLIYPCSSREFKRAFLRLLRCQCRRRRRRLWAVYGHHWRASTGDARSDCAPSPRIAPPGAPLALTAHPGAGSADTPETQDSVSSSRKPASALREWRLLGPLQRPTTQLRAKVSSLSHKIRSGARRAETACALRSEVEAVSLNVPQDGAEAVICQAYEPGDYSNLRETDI
Procedure: as §1, §2

anaesthetised dogs = assay: Intracavernous and blood pressure recording in dogs
Procedure: Male beagle dogs were anaesthetised with pentobarbital sodium (i.v. Nembutal, 35 mg/kg for induction and 4 mg/kg/h for maintenance) and intubated with an endotracheal cuffed tube to facilitate free ventilation. A collateral of the left femoral vein was cannulated with a PE catheter for infusion of the anaesthetic. Systemic BP was monitored via a Mikro-tip 6F (Millar Instruments) pressure transducer introduced into the aortic arch through the right common carotid artery. ICP was measured by means of a 20-gauge needle placed into the left or right corpus cavernosum and the same needle was used for intracavernous injection of the drugs. The needle was attached to a catheter filled with heparinized saline (25 IU/mL). […] The compounds to be tested were injected intracavernously in a volume of 0.5 ml and, after each injection, the needle was flushed with 0.5 ml of saline. The vehicles for compound dissolution were tested before the first dose of each drug. The compounds were administered in a cumulative way, with a 30-minute interval between doses. ICP (mmHg) was measured at the peak effect after the administration of the compounds. The duration of tumescence (DT, min) was measured from the beginning of the rise of ICP over its basal value up to the return to baseline. The systolic blood pressure and diastolic blood pressure (mmHg) were measured at the peak effect after the administration of compounds, in order to evaluate the effects of the compounds on BP independently from the effects on ICP. Moreover, the systolic blood pressure was measured at the time of maximal ICP value after intracavernous injection, to evaluate the ICP/BP ratios. […] The data were reported as mean ±s.e. of the mean, or percent variation (±s.e.) of the basal values.

Compound: COc1cc2nc(N3CCN(C(=O)COc4c(OC)cccc4C(C)C)CC3)nc(N)c2cc1OC.Cl [Compound A, 4-Amino-6,7-dimethoxy-2-[4-[(2-isopropyl-6-methoxyphenoxy)acetyl]-1-piperazinyl]quinazoline hydrochloride]
- Ki (bovine α1a-adrenoceptor): 7.5 nM
- BP (anaesthetised rats; 10 μg/kg intracavernous): 91.3 ± 9.4 mmHg
- ICP (anaesthetised rats; 10 μg/kg intracavernous): 36.8 ± 8.7 mmHg
- BP (anaesthetised rats; 30 μg/kg intracavernous): 82.7 ± 11.0 mmHg
- ICP (anaesthetised rats; 30 μg/kg intracavernous): 37.6 ± 10.1 mmHg
- BP (anaesthetised rats; 100 μg/kg intracavernous): 74.8 ± 9.3 mmHg
- ICP (anaesthetised rats; 100 μg/kg intracavernous): 38.7 ± 12.3 mmHg
- BP (anaesthetised rats; 300 μg/kg intracavernous): 72.5 ± 5.6 mmHg
- ICP (anaesthetised rats; 300 μg/kg intracavernous, hydrochloride): 50.6 mmHg and 50.6 ± 13.7 mmHg
- effect on ICP (in words) (anaesthetised rats; intracavernous injection): dose-dependently increased ICP
- decrease of blood pressure accompanying the ICP/BP increase (FIG. 1) (anaesthetised rats; intracavernous, 10-300 μg): ≤ 20%
- decrease of BP (anaesthetised rats; intracavernous, over the dose range up to 300 μg/kg): about 30%
- Ki (hamster α1b-adrenoceptor): 0.45 nM
- Ki (rat α1d-adrenoceptor): 10.3 nM
- DBP (anaesthetised dogs; 3 μg/kg intracavernous): 116.0 ± 5.9 mmHg
- DT (duration of tumescence) (anaesthetised dogs; 3 μg/kg intracavernous): 1.2 ± 0.2 min
- ICP (anaesthetised dogs; 3 μg/kg intracavernous): 26.7 ± 8.7 mmHg
- SBP (anaesthetised dogs; 3 μg/kg intracavernous): 155.3 ± 5.5 mmHg
- SBPICP (SBP at the time of maximal ICP value) (anaesthetised dogs; 3 μg/kg intracavernous): 156.7 ± 6.8 mmHg
- increase of ICP in comparison with basal ICP values (anaesthetised dogs; 3 μg/kg intracavernous): 12 mmHg
- DBP (anaesthetised dogs; 10 μg/kg intracavernous): 120.0 ± 5.9 mmHg
- DT (duration of tumescence) (anaesthetised dogs; 10 μg/kg intracavernous): 15.0 ± 8.4 min
- ICP (anaesthetised dogs; 10 μg/kg intracavernous): 75.0 ± 32.4 mmHg
- SBP (anaesthetised dogs; 10 μg/kg intracavernous): 157.5 ± 6.6 mmHg
- SBPICP (SBP at the time of maximal ICP value) (anaesthetised dogs; 10 μg/kg intracavernous): 158.5 ± 7.4 mmHg
- DBP (anaesthetised dogs; 30 μg/kg intracavernous): 117.5 ± 6.5 mmHg
- DT (duration of tumescence) (anaesthetised dogs; 30 μg/kg intracavernous): 8.3 ± 3.2 min
- ICP (anaesthetised dogs; 30 μg/kg intracavernous): 91.5 ± 26.9 mmHg
- SBP (anaesthetised dogs; 30 μg/kg intracavernous): 154.0 ± 6.6 mmHg
- SBPICP (SBP at the time of maximal ICP value) (anaesthetised dogs; 30 μg/kg intracavernous): 156.5 ± 5.9 mmHg
- DBP (anaesthetised dogs; 100 μg/kg intracavernous): 113.0 ± 7.3 mmHg
- DT (duration of tumescence) (anaesthetised dogs; 100 μg/kg intracavernous): 13.7 ± 5.6 min
- ICP (anaesthetised dogs; 100 μg/kg intracavernous): 95.0 ± 23.3 mmHg
- SBP (anaesthetised dogs; 100 μg/kg intracavernous): 147.5 ± 7.6 mmHg
- SBPICP (SBP at the time of maximal ICP value) (anaesthetised dogs; 100 μg/kg intracavernous): 148.5 ± 6.0 mmHg
- DBP (anaesthetised dogs; 300 μg/kg intracavernous): 107.5 ± 7.4 mmHg
- ICP (anaesthetised dogs; 300 μg/kg intracavernous): 111.0 ± 10.9 mmHg
- SBP (anaesthetised dogs; 300 μg/kg intracavernous): 140.0 ± 7.4 mmHg
- SBPICP (SBP at the time of maximal ICP value) (anaesthetised dogs; 300 μg/kg intracavernous): 142.0 ± 6.5 mmHg
- increase of ICP in comparison with basal ICP values (anaesthetised dogs; 300 μg/kg intracavernous): 96.5 mmHg
- duration of action compared with reference compounds (anaesthetised dogs; Compound B at the highest dose tested): higher than that of the reference compounds tested
- hypotension computed on diastolic blood pressure (change) (anaesthetised dogs; dose-dependent over 3-300 μg/kg): −10 to −19 mmHg
- decrease of blood pressure accompanying the ICP/BP increase (FIG. 2) (anaesthetised dogs; intracavernous): ≤ 20%
- effect on ICP (in words) (anaesthetised dogs; intracavernous injection): dose-dependently increased ICP

Source: patent US6953800B2, “Use of selective antagonists of the α1B-adrenergic receptor for improvement of sexual dysfunction” (Recordati S.A. Chemical, priority 1999, dated 2005)
